# Source: patent US9688653B2, “Ethoxyphenyl thienyl compounds and methods for the treatment of bacterial infections” (Duke University, priority 2013, dated 2017)
# Read-outs that look alike come from different tables or passages of the source.
# Key:
# [1] = biological target: norepinephrine transporter (Homo sapiens, UniProt P23975); test: LeadProfilingScreen, single target; format: binding; conditions: Transporter, Norepinephrine (NET), hum, 10 μM
# Method: Evaluation of off-target effects. Off target effects of lead molecules of interest were evaluated using the LeadProfilingScreen commercial assay at Eurofins Panlabs (Bothell, Wash.). Reference standards were run as an integral part of each assay to ensure the validity of the results obtained. Assay results are presented as the percent inhibition of specific binding or activity (for n=2 replicates) for the probe compound tested at a concentration of 10 μM. Details regarding the individual assays and methods are provided in Supplementary Information File 51.
# DU003 & DU011 are biologically selective. DU003 and DU011 were submitted to the Eurofins Panlabs LeadProfilingScreen to assess off-target pharmacology 1421. […] In review of PubChem data, DU011 (CID23602075) is reported to have shown activity in only 21 of 467 (4.5%, as of Sep. 5, 2013) bioassays in which it was tested (assays unrelated to the current project). Per PubChem, DU003 (CID18109210) is reported to have shown activity in only 5 of 427 (1.2%, as of Sep. 5, 2013) bioassays in which it was tested (assays unrelated to the current project).
# panel of 68 receptors = conditions: for Inhibition across off-target panel: duplicate, upper bound over all targets
# K1 capsule of UTI89 = test: Secondary assay 3: orcinol assay for released K1 capsule polysaccharide; format: cell-based, Escherichia coli
# Method: E. Secondary Assay 3: Orcinol Secondary Screening for Inhibitors of Bacterial Capsule Biogenesis.
# Purpose: This assay was performed only on the probe candidate. […] The biochemical determination of cell-surface associated capsule was performed using UTI89 or the Delta Region I and Delta Region II capsule mutant bacterial strains.
# Purpose: This assay was performed only on the probe candidate. […] The biochemical determination of cell-surface associated capsule was performed using UTI89 or the delta Region I and Region II capsule mutant bacterial strains.
# Assay Description: The biochemical measurement of cell-surface associated capsule was performed. UTI89 or capsule mutants were grown in culture tubes with and without the test compound (50 μM). The cultures were centrifuged, and the cell pellets were washed in PBS and resuspended in Tris buffer, pH5. […] Released polysaccharide was harvested by separation from whole bacteria by centrifugation followed by deproteination with phenol/chloroform and precipitation with ethanol. The precipitated material was subjected to acid hydrolysis (pH 2 at 80° C. for 1 hr) and incubated with orcinol, which reacts with periodic intermediates to produce a violet color quantified at OD 570 (3) Inhibitors reducing or abrogating surface encapsulation yielded low orcinol levels similar to the capsule export and synthesis mutants (Region I and II). The positive control drug C7 (100 μM final well concentration) was used in this screen.
# Endpoint Read: The samples were read at ambient temperature from the bottom for absorbance at A570 in a BioTek Quantplate reader and the degree of orcinol-reactive material was determined based on the absorbance compared to a wild-type encapsulated strain (UTI89) and a standard curve using purified sialic acid.
# Orcinol assay for released capsule material. Orcinol reactivity was used as a biochemical confirmation of altered extracellular capsule after compound treatment. UTI89 or an isogenic capsule mutant was grown in 100 μM of test compound or 1% DMSO. The assay was performed as previously described. The molecule C7 (100 μM final concentration) was used as a positive control. The assay was performed 3 times with replicate samples.
# [2] = Plasma protein binding, mouse; format: in vitro ADME
# Plasma stability, mouse = format: in vitro ADME; conditions: 1:1 Plasma:PBS, 37° C.
# K1 antigen of UTI89 = test: K1 antigen whole-cell dot blot with anti-K1 serum; format: cell-based, Escherichia coli; conditions: 100 μM
# Method: K1 antigen dot blot. K1 antigen was detected by dot blot assays of culture extracts probed with anti-K1 H46 serum. The assay was performed as previously described. The experiment was repeated twice with similar results, and a representative dot blot is shown.
# UPEC = test: Bacterial growth and viability without phage; format: cell-based, Escherichia coli
# Method: Assay Set-up: This secondary assay was conducted in the 96 well plate format. […] Compounds were added to plates in a concentration dependent manner in the range of 100-0.39 μM, followed by addition of 100 μL of bacterial culture. Each concentration was tested in quadruplicate. 1% DMSO (final well concentration) was included. The plates were tape sealed and shaken vigorously for 1.5 hr. An initial OD600 reading at the time of infection was measured to identify compounds that cause growth retardation or bacterial killing in the absence of phage. Next, K1F phage (5 μL) was added to all of the test wells. The plates were resealed and shaken vigorously at 37° C., and measurements of OD600 for phage-mediated lysis were taken after 3 hr.
# Assay Description: T7 phage-mediated lysis assay: This assay determined if the mechanism of action of the compound is inhibition of phage infectivity or replication. The T7 phage has a nearly identical genome to K1F, without encoding an endosialidase. Its cycle of replication is similar to that of K1F as well. However, T7 entry into E. coli is inhibited by K capsules. This secondary assay was conducted in the 96 well plate format. […] An initial OD600 reading was measured to identify compounds that cause growth retardation or bacterial killing in the absence of phage. […]
# Sequence of norepinephrine transporter (P23975 whole entry): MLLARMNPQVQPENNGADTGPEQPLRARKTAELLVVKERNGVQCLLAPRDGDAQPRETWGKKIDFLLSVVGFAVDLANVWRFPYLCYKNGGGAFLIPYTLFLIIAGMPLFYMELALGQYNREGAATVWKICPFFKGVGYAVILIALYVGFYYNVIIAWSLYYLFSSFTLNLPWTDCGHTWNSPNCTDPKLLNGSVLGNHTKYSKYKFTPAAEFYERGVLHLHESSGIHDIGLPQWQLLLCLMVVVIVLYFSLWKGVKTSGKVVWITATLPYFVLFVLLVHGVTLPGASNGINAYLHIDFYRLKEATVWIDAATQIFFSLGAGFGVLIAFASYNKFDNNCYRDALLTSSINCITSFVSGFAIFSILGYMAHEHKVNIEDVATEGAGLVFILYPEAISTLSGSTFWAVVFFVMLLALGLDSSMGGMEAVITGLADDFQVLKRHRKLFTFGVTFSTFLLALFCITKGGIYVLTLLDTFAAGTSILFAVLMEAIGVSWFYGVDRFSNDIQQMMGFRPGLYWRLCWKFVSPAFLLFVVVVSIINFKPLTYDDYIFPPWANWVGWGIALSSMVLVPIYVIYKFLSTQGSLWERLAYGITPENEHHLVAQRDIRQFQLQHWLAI
smiles,measurement,setting,value
CCOc1ccc(-c2cc(NC(=O)c3c(F)cccc3F)c(C(=O)O)s2)cc1 [KUC107784N-02],% Inh.,[1],13%
same,% Inh.,panel of 68 receptors; 10 µM,6%
same,% Inh.,"panel of 68 receptors; Calcium Channel L-Type, Benzothiazepine, rat, 10 μM",2%
same,% Inh.,"panel of 68 receptors; Calcium Channel L-Type, Dihydropyridine, rat, 10 μM",32%
same,% Inh.,"panel of 68 receptors; Dopamine D2S, hum, 10 μM",4%
same,% Inh.,"panel of 68 receptors; Dopamine D42, hum, 10 μM",7%
same,% Inh.,"panel of 68 receptors; GABAA, Flunitrazepam, Central, rat, 10 μM",16%
same,% Inh.,"panel of 68 receptors; GABAA, Muscimol, Central, rat, 10 μM",9%
same,% Inh.,"panel of 68 receptors; Glutamate, Kainate, rat, 10 μM",11%
same,% Inh.,"panel of 68 receptors; Glutamate, NMDA, Agonism, rat, 10 μM",9%
same,% Inh.,"panel of 68 receptors; Glutamate, NMDA, Glycine, rat, 10 μM",−1%
same,% Inh.,"panel of 68 receptors; Glutamate, NMDA, Phencyclidine, rat, 10 μM",6%
same,% Inh.,"panel of 68 receptors; Imidazoline I2, Central, rat, 10 μM",−1%
same,% Inh.,"panel of 68 receptors; Nicotinic Acetylcholine, hum, 10 μM",13%
same,% Inh.,"panel of 68 receptors; Phorbol Ester, mouse, 10 μM",−1%
same,% Inh.,"panel of 68 receptors; Potassium Channel [KATP], ham, 10 μM",9%
same,% Inh.,"panel of 68 receptors; Purinergic P2X, rabbit, 10 μM",−2%
same,% Inh.,"panel of 68 receptors; Purinergic P2Y, rat, 10 μM",8%
same,% Inh.,"panel of 68 receptors; Rolipram, rat, 10 μM",9%
same,% Inh.,"panel of 68 receptors; Thyroid Hormone, rat, 10 μM",−3%
same,% Inh.,"panel of 68 receptors; Transporter, GABA, rat, 10 μM",10%
"CCOc1ccc(-c2cc(NC(=O)c3c(F)cccc3F)c(C(=O)O)s2)cc1 [ML317, 3-(2,6-difluorobenzamido)-5-(4-ethoxyphenyl)thiophene-2-carboxylic acid]","Bacterial capsule-dependent orcinol stain, % of the control sample",K1 capsule of UTI89,21%
same,Reduction of orcinol-reactive polysaccharides on surface of bacteria,"K1 capsule of UTI89; 100 μM, K1 strain UTI89",~80%
same,"Orcinol assay, % of control value","K1 capsule of UTI89; synthesized sample, SID 126497311",Orcinol assay 21%
same,Plasma Protein Binding (% Bound),[2]; 1 μM,98.97 % Bound
same,Plasma Protein Binding (% Bound),[2]; 10 μM,99.31 % Bound
same,"Plasma Stability, % remaining at 3 hr","Plasma stability, mouse",78.4 % remaining
same,Whole-cell anti-K1 dot blot reactivity,K1 antigen of UTI89,reduces K1 reactive material to levels comparable to those of genetic capsule mutants
same,Effect on in vitro growth and viability of UPEC,UPEC; absence of immune factors,no effect
same,Effect on bacterial cell viability,UPEC; highest tested concentration (100 μM),no effect
same,Inhibition across off-target panel,panel of 68 receptors; 10 μM,< 50%
same,Inhibition across off-target panel,"panel of 68 receptors; 10 μM, listed as DU011, 10 µM",< 32%
